In experiment [1] the test system is MIA PaCa-2 cells with Kras G12C mutation. Nature of the experiment: Cell proliferation inhibition experiment, 3D spheroid, CellTiter-Glo (Test Example 3). In kind it is cell-based, human. Conditions: Homo sapiens, MIA PaCa-2, 120 h, 5 days, read-out: MIA-PaCa2 IC50. Here is the method: MIA PaCa-2 was a human pancreatic carcinoma cell line with Kras G12C mutation, which was cultured in a DMEM with 10% FBS and 2.5% Horse serum. A549 was a human lung adenocarcinoma cell line with Kras G12S mutation, which was cultured in an F-12K medium with 10% FBS. Cells in logarithmic growth phase were detached with trypsin and EDTA, collected and counted, and 200 MIA PaCa-2 cells and 400 A549 cells were seeded to 384-well spheroid plates, respectively, and cultured overnight to establish 3D cell models. 1000× stock solutions of compounds at a concentration gradient of 3.16 were prepared by using DMSO, and diluted 100 times by the medium into 10× stock solutions of compounds. On the day after cell seeding, 10× stock solution of a compound was added to each well of cell culture plate, with a final concentration being 1× and a DMSO content of 0.1%. DMSO was used as the control, and the medium was used as the blank. After 5 days of cell culture with the compound, 30 μl of CellTiter-Glo working solution was added to each well, and mixed uniformly and incubation for 30 minutes. After standing at room temperature for 30 minutes, 40 μl of mixed solution was transferred to a 384-well plate with white unclear bottom. A value of luminescence intensity was then read, and a cell proliferation inhibition rate (IR) (%)=(RLU control−RLU compound)/(RLU control−RLU blank)×100%. The value of IC50 was calculated by fitting a gradiently diluted concentration of the compound and the corresponding cell proliferation inhibition rate using an XLFit four-parameter method.

The test system of experiment [2] is NCI-H358 cells with Kras G12C mutation. Description: Cell proliferation inhibition experiment, 3D spheroid, CellTiter-Glo (Test Example 1). The class given is cell-based, human. Conditions: Homo sapiens, NCI-H358, 120 h, 5 days. The method, then:
(§1) NCI-H358 was a human NSCLC cell line with Kras G12C mutation, which was cultured in a RPMI-1640 medium with 10% fetal bovine serum (FBS). A549 was a human lung adenocarcinoma cell line with Kras G12S mutation, which was cultured in an F-12K medium with 10% FBS. Cells in logarithmic growth phase were detached with trypsin and EDTA, collected and counted, and H358 was regulated to 1.8E4 cells/ml by using an RPMI-1640 medium with 2% FBS, while A549 was regulated to 8.9E3 cells/ml with an F-12K medium containing 2% FBS. 800 (45 μl) H358 cells and 400 (45 μl) A549 cells were seeded to 384-well spheroid plates, respectively, and cultured overnight to establish 3D cell models. 1000× stock solutions of compounds at a concentration gradient of 3.16 were prepared by using DMSO, and diluted 100 times by the medium with 2% FBS into 10× stock solutions of compounds. On the day after cell seeding, 5 μl of 10× stock solution of a compound was added to each well of cell culture plate, with a final concentration being 1× and a DMSO content of 0.1%. DMSO was used as the control, and the medium with 2% FBS was used as blank control group. After 5 days of cell culture with the compound, 25 μl of CellTiter-Glo working solution was added to each well, and mixed uniformly at 400 rpm and incubation for 30 minutes. After standing at room temperature for 30 minutes, 40 μl of mixed solution was transferred to a 384-well plate with white clear bottom. A value of luminescence was then read, and a cell proliferation inhibition rate (IR) (%)=(RLU control-RLU compound)/(RLU control−RLU blank)×100%. The value of IC50 was calculated by fitting a gradiently diluted concentration of the compound and the corresponding cell proliferation inhibition rate using a Prism 6 four-parameter method.

The subject of experiment [3] is A549 cells with Kras G12S mutation. The description is as above. Conditions: Homo sapiens, A549, 120 h, 5 days. In kind it is cell-based, human. The method, then:
as §1

Experiment [4] has as its system subcutaneous xenograft tumor model of MIA PaCa-2. Nature of the experiment: In vivo pharmacodynamic experiment, tumor growth inhibition (Test Example 5). Details: species or system BALB/c nude mice. Conditions: p.o., QD; for TGI: day 14. Here is the method: Experimental objective: to evaluate the in vivo pharmaceutical effects of tested compounds on the subcutaneous xenograft tumor model of MIA PaCa-2.
Experimental operation: 6 to 8 weeks old female BALB/c nude mice each having the body weight of 18-20 g were chosen. MIA PaCa-2 cells were cultured in DMEM containing 10% FBS, 2.5% HS and 1% penicillin-streptomycin at 37° C. in an incubator with 5% CO2. Cells were collected. The MIA PaCa-2 cells were subcutaneously inoculated to the animals at their backs on the right, 2.0×10^6 cells (0.1 mL) for each animal. When tumor grew to 190-311 mm^3, mice with tumor having a suitable size were chosen and treated in groups, with administration dosages shown in Table 5 below. The animals were weighed on an electronic balance each day. The tumor volume was investigated by using a vernier caliper twice a week. The tumor volume was calculated by the following equation: V=0.5 a×b^2, a and b representing the long diameter and the short diameter of the tumor, respectively. The tumor volume was used to calculate a tumor growth inhibition rate (TGI), and the TGI shown in the form of a percentage was used to indicate the antineoplastic activity of a compound. The TGI was calculated by the following equation: TGI (%)=[1−avTi−0/avCi−0)]×100, with avTi−0 representing the average tumor volume of the group administrated with the compound on a specific day minus the average tumor volume of this group on the day of grouping, and avCi−0 representing the average tumor volume of the solvent control group on a specific day minus the average tumor volume of the solvent control group on the day of grouping. The tumor volume was shown in the form of an average value±standard error of mean (SEM).

Experiment [5] relates to phosphorylated ERK in MIA PaCa2 cells with Kras G12C mutation. Description: p-ERK HTRF assay for cells (Test Example 2). The class given is cell-based, human. Conditions: Homo sapiens, MIA PaCa-2, 2 h, MIA PaCa2 cells, 2 hours with compound; read-out: p-ERK IC50. Here is the method:
MIA PaCa2 was a human pancreatic carcinoma cell line with Kras G12C mutation, which was cultured in a DMEM with 10% FBS and 2.5% Horse serum. Cells in logarithmic growth phase were detached with trypsin and EDTA, collected and counted, and 2.5E4 cells were seeded to a 96-well cell culture plate and cultured overnight. 1000× stock solutions of compounds at a concentration gradient of 3.16 were prepared by using DMSO, and diluted 200 times by the medium into 5× stock solutions of compounds. On the day after cell seeding, 5× stock solution of a compound was added to each well of cell culture plate, with a final concentration being 1× and a DMSO content of 0.1%. DMSO was used as the control. The residual culture was removed after culturing for 2 hours with the compound. To each well, 50 ul of cell lysis buffer was added and mixed uniformly and incubation for 30 minutes. Subsequently, 16 ul of mixed solution was transferred to a 96-well plate with white unclear bottom, and 16 ul of cell lysis buffer was added to the blank control group. After the completion of transfer, 4 ul of p-ERK HTRF antibody mixture was added to each well, and a value of fluorescence intensity was read after incubation for 4 hours. The inhibition rate (IR) of the compound was calculated by the following equation: IR (%)=(RLU control-RLU compound)/(RLU control−RLU blank)×100%. The value of IC50 was calculated by fitting a gradiently diluted concentration of the compound and the corresponding cell proliferation inhibition rate using a Prism 8 four-parameter method.

A value given as a limit tells only on which side of the number the result lay.

As to `C=CC(=O)N1C[C@@H]2C(=O)N(C)c3c(c4cc(Cl)c(-c5c(O)cccc5F)nc4n(-c4c(C(C)C)ncnc4C(C)C)c3=O)N2C[C@H]1C` [Compound Z23, (2R,4aR)-3-acryloyl-11-chloro-8-(4,6-diisopropylpyrimidin-5-yl)-10-(2-fluoro-6-hydroxyphenyl)-2,6-dimethyl-2,3,4,4a,6,8-hexahydro-1H-pyrazino[1′,2′:4,5]pyrazino[2,3-c][1,8]naphthyridin-5,7-dione], the IC50 was found to be 2 nM in experiment [1], 2 nM in experiment [2], 10500 nM in experiment [3] and 17 nM in experiment [5]. Also, the “Tumor Volume on Day 14 after Administration” value is 194.65 mm^3 in experiment [4] (1 mg/kg), 59.52 mm^3 in experiment [4] (3 mg/kg) and 47.32 mm^3 in experiment [4] (10 mg/kg). The results for the TGI in experiment [4] (1 mg/kg), in experiment [4] (3 mg/kg) and in experiment [4] (10 mg/kg) were 113.2%, 143.5% and 149.2%, respectively.

As to `C=CC(=O)N1CCN2c3c(c(=O)n(-c4c(C)ccnc4C(C)C)c4nc(-c5c(O)cccc5F)c(F)cc34)N(C)C(=O)CC2C1` (stereo not drawn) [Compound Z43, 3-acryloyl-12-fluoro-11-(2-fluoro-6-hydroxyphenyl)-9-(2-isopropyl-4-methylpyridin-3-yl)-7-methyl-1,2,3,4,4a,5,7,9-octahydropyrazino[1′,2′:4,5][1,4]diaza[2,3-c][1,8]naphthyridin-6,8-dione], the IC50 in experiment [1] is 220 nM; in experiment [2], 49 nM; in experiment [3], 29200 nM; in experiment [5], 439 nM.

With `[2H]C([2H])([2H])N1C(=O)[C@H]2CN(C(=O)C=C)[C@H](C)CN2c2c1c(=O)n(-c1c(C(C)C)ncnc1C(C)C)c1nc(-c3c(O)cccc3F)c(F)cc21` [Compound Z44, (2R,4aR)-3-acryloyl-8-(4,6-diisopropylpyrimidin-5-yl)-11-fluoro-10-(2-fluoro-6-hydroxyphenyl)-2-methyl-6-(methyl-d3)-2,3,4,4a,6,8-hexahydro-1H-pyrazino[1′,2′:4,5]pyrazino[2,3-c][1,8]naphthyridin-5,7-dione], the IC50 in experiment [1] was 34 nM; in experiment [2] it was 11 nM; in experiment [3], greater than 30000 nM; in experiment [5], 88 nM.

In the case of `[2H]C([2H])([2H])N1C(=O)[C@H]2CN(C(=O)C=C)[C@H](C)CN2c2c1c(=O)n(-c1c(C(C)C)ncnc1C(C)C)c1nc(-c3c(F)cccc3OC)c(F)cc21` [Compound Z44a, (2R,4aR)-3-acryloyl-8-(4,6-diisopropylpyrimidin-5-yl)-11-fluoro-10-(2-fluoro-6-methoxyphenyl)-2-methyl-6-(methyl-d3)-2,3,4,4a,6,8-hexahydro-1H-pyrazino[1′,2′:4,5]pyrazino[2,3-c][1,8]naphthyridin-5,7-dione], the IC50 in experiment [1] came out at 103 nM; in experiment [2], 24 nM; in experiment [3], 9240 nM; in experiment [5], 170 nM.

For `C=CC(=O)N1C[C@@H]2C(=O)Nc3c(c4cc(F)c(-c5c(O)cccc5F)nc4n(-c4c(C(C)C)ncnc4C(C)C)c3=O)N2C[C@H]1C` [Compound Z45, (2R,4aR)-3-acryloyl-8-(4,6-diisopropylpyrimidin-5-yl)-11-fluoro-10-(2-fluoro-6-hydroxyphenyl)-2-methyl-2,3,4,4a,6,8-hexahydro-1H-pyrazino[1′,2′:4,5]pyrazino[2,3-c][1,8]naphthyridin-5,7-dione], the IC50 was 48 nM in experiment [1], 13 nM in experiment [2], greater than 30000 nM in experiment [3] and 122 nM in experiment [5].

For the molecule `C=CC(=O)N1C[C@@H]2C(=O)N(C)c3c(c4cc(F)c(-c5c(O)cccc5F)nc4n(-c4c(C)cc(C)nc4C(C)C)c3=O)N2C[C@H]1C` [Compound Z46], the half-inhibitory concentration (IC50) worked out at 68 nM in experiment [1], 12 nM in experiment [2], 10300 nM in experiment [3] and 224 nM in experiment [5].

(Values after patent US12054497B2, “Substituted heterocyclic fused cyclic compound, preparation method therefor and pharmaceutical use thereof” (GENFLEET THERAPEUTICS (SHANGHAI) INC., priority 2019, dated 2024).)
